The assay has as its target T1, chymotrypsin-like (CT-L) proteasome activity (Homo sapiens, UniProt P20618+P28074).
T1 sequence (P28074 60-263): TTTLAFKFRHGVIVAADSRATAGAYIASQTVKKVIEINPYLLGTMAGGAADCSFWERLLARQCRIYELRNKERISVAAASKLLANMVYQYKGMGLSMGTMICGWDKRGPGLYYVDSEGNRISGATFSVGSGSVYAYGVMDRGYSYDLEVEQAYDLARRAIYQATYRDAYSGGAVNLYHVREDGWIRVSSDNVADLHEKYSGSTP
T1 sequence (P20618 29-241): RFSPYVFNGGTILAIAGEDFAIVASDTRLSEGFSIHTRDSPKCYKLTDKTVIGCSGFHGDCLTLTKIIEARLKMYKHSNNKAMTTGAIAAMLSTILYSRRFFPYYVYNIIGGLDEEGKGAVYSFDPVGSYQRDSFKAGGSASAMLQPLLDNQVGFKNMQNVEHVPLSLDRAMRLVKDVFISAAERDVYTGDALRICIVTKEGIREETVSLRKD
The assay is described as follows: Proteasome enzymatic activity (tumor cell lysates), CT-L, KMS-11. The format is biochemical. To be noted: KMS-11, mean ± standard deviation. How it is done:
Human multiple myeloma cell lines 8226, H929, JJN3, KMH11, KMS11, KMS18, LP1, MM1S, OPM2 and U266 were grown in Iscove modified Dulbecco's medium (IMDM). Human leukemia cell lines K562, OCI-AML2 and U937 were cultured in RPMI-1640 medium. Primary peripheral blood mononuclear cells were isolated from multiple myeloma patients by Ficoll density gradient centrifugation and bone marrow aspirates were obtained from multiple myeloma patients at the Princess Margaret Cancer Centre of the University Health Network (UHN; Toronto, ON, Canada). Primary cells were cultured in IMDM. The collection and use of human tissue for this study was approved by the UHN institutional ethics review board. All cell culture media were obtained from the Ontario Cancer Institute Tissue Culture Media Facility (Toronto, ON, Canada) and were supplemented with 10% fetal calf serum, […] (Hyclone, Logan, Utah). All cells were grown in a humidified incubator at 37° C. with 5% CO2.
Cells were harvested by centrifugation at 1,200 rpm at room temperature. Cell pellets were washed with PBS (phosphate buffered saline) and lysed with assay lysis buffer (50 mM HEPES (N-2-hydroxyethylpiperazine-N′-2-ethanesulfonic acid), pH 7.5; 150 mM NaCl; 1% Triton X-100; 2 mM ATP). Cell lysates were incubated on ice for 30 minutes, mixed by vortex every 5 minutes, and then centrifuged at 12,000 g for 10 minutes. The supernatant was transferred to a 96-well plate. For each assay, 10 μg of total protein were incubated for 1 hour at 37° C. with increasing concentrations (1 nM to 10 μM) of test compound diluted in assay buffer (50 mM tris-HCl (tris(hydroxymethyl)aminomethane-HCl), pH 7.5; 150 mM NaCl). DMSO alone was used as a control in every assay plate. After incubation, a specific fluorogenic proteasome substrate was added to each assay reaction at a final concentration of 40 μM in a total volume of 100 μL. N-Succinyl-Leu-Leu-Val-Tyr-7-amino-4-methylcoumarin (Suc-Leu-Leu-Val-Tyr-AMC) was used for measuring chymotrypsin-like (CT-L) activity, t-butoxycarbonyl-Leu-Arg-Arg-7-amino-4-methylcoumarin (Boc-Leu-Arg-Arg-AMC) for trypsin-like (T-L) activity, and benzyloxycarbonyl-L-leucyl-L-leucyl-L-glutamyl-7-amino-4-methylcoumarin (Z-Leu-Leu-Glu-AMC) for caspase-like (C-L) activity. The excitation wavelength was set at 360 nm and the fluorescence emission wavelength of AMC was detected at 460 nm. The fluorescence of free AMC released during the enzymatic reaction was measured with a SpectraMax M5 fluorescent spectrophotometric plate reader (Molecular Devices, Sunnyvale, Calif.). AMC release rate was measured at 37° C. in a kinetic mode, recording every 5 minutes for 30 minutes. Experiments were performed in triplicate and repeated at least twice.
Table 8 summarizes the data of representative compounds of Formula I for cell viability and CT-L proteasome activity with OCI-AML-2 and KMS-11 cell lines.
With `CC(C)C[C@H](NC(=O)[C@H](COC(F)F)NC(=O)CN1CCOCC1)C(=O)N[C@@H](COC(F)F)C(=O)N[C@@H](CC(C)C)C(=O)[C@@]1(C)CO1` [Example 1, (2S)—N-[(1S)-1-(difluoromethoxymethyl)-2-[[(1S)-3-methyl-1-[(2R)-2-methyloxirane-2-carbonyl]butyl]amino]-2-oxo-ethyl]-2-[[(2S)-3-(difluoromethoxy)-2-[(2-morpholinoacetyl)amino]propanoyl]amino]-4-methyl-pentanamide], half-maximal inhibition (IC50) was put at 40.4 ± 6.97 nM. For `CC(C)C[C@H](NC(=O)[C@H](COC(F)F)NC(=O)CN1CCOCC1)C(=O)N[C@@H](Cc1ccccc1)C(=O)N[C@@H](CC(C)C)C(=O)[C@@]1(C)CO1` [Example 2, (2S)-N-[(1S)-1-benzyl-2-[[(1S)-3-methyl-1-[(2R)-2-methyloxirane-2-carbonyl]butyl]-amino]-2-oxo-ethyl]-2-[[(2S)-3-(difluoromethoxy)-2-[(2-morpholinoacetyl)amino]propanoyl]amino]-4-methyl-pentanamide], the IC50 was 46.8 ± 1.58 nM. Under `CC(C)C[C@H](NC(=O)[C@H](COC(F)F)NC(=O)CN1CCOCC1)C(=O)N[C@@H](Cc1ccccc1)C(=O)N[C@@H](Cc1ccccc1)C(=O)[C@@]1(C)CO1` [Example 3, (2S)-N-[(1S)-1-benzyl-2-[[(1S)-1-benzyl-2-[(2R)-2-methyloxiran-2-yl]-2-oxo-ethyl]amino]-2-oxo-ethyl]-2-[[(2S)-3-(difluoromethoxy)-2-[(2-morpholinoacetyl)-amino]propanoyl]amino]-4-methyl-pentan-amide] stands 38.2 ± 2.81 nM.

Molecule `CC(C)C[C@H](NC(=O)[C@H](COC(F)F)NC(=O)CN1CCOCC1)C(=O)N[C@@H](COC(F)F)C(=O)N[C@@H](Cc1ccccc1)C(=O)[C@@]1(C)CO1` [Example 4, (2S)-N-[(1S)-2-[[(1S)-1-benzyl-2-[(2R)-2-methyloxiran-2-yl]-2-oxo-ethyl]amino]-1-(difluoromethoxymethyl)-2-oxo-ethyl]-2-[[(2S)-3-(difluoromethoxy)-2-[(2-mor-pholinoacetyl)amino]propanoyl]amino]-4 methyl-pentanamide] yielded an IC50 of 45.7 ± 8.26 nM. Under `CC(C)C[C@H](NC(=O)[C@H](COC(F)F)NC(=O)[C@H](COC(F)F)NC(=O)[C@H](CCc1ccccc1)NC(=O)CN1CCOCC1)C(=O)[C@@]1(C)CO1` [Example 7, (2S)-N-[(1S)-1-(difluoromethoxymethyl)-2-[[(1S)-1-(difluoromethoxymethyl)-2-[[(1S)-3-methyl-1-[(2R)-2-methyloxirane-2-carbo-nyl]butyl]amino]-2-oxo-ethyl]amino]-2-oxo-ethyl]-2-[(2-morpholinoacetyl)amino]-4-phenyl-butanamide] stands 33.7 ± 5.6 nM; under `CC(C)C[C@H](NC(=O)[C@H](Cc1ccccc1)NC(=O)[C@H](COC(F)F)NC(=O)[C@H](COC(F)F)NC(=O)CN1CCOCC1)C(=O)[C@@]1(C)CO1` [Example 11, (2S)-2-[[(2S)-3-(difluoromethoxy)-2-[[(2S)-3-(difluoromethoxy)-2-[(2-morpholinoacetyl)-amino]propanoyl]amino]propanoyl]amino]-N-[(1S)-3-methyl-1-[(2R)-2-methyloxirane-2-carbonyl]butyl]-3-phenyl-propanamide], 50.7 ± 7.72 nM.

In turn, `CC(C)C[C@H](NC(=O)[C@H](COC(F)F)NC(=O)[C@H](COC(F)F)NC(=O)[C@H](COC(F)F)NC(=O)CN1CCOCC1)C(=O)[C@@]1(C)CO1` [Example 17, (2S)-3-(difluoromethoxy)-N-[(1S)-1-(difluoromethoxymethyl)-2-[[(1S)-1-(difluoro-methoxymethyl)-2-[[(1S)-3-methyl-1-[(2R)-2-methyloxirane-2-carbonyl]butyl]amino]-2-oxo-ethyl]amino]-2-oxo-ethyl]-2-[(2-mor-pholinoacetyl)amino]-propanamide] gave an IC50 of 77.8 ± 6.77 nM. Compared with the last molecule, the IC50 is about 1.5-fold higher.

The values are drawn from patent US20150218212A1, “FLUORINATED EPOXYKETONE-BASED TETRAPEPTIDE COMPOUNDS AND USES THEREOF AS PROTEASOME INHIBITORS” (FLUORINOV PHARMA INC., priority 2012, published 2015).
